Test results from BigSolDB 2.1.

O=C(Cn1cnnn1)N[C@@H]1C(=O)N2C(C(=O)O)=C(CSc3nncs3)CS[C@H]12
solubility (mole fraction)
Settings	278.15 K	283.15 K	288.15 K	293.15 K	298.15 K	303.15 K	308.15 K	313.15 K
in acetone	0.00153	0.00156	0.00161	0.00165	0.0017	0.00184	0.00193	0.0023
in acetonitrile	0.000124	0.000137	0.000159	0.000164	0.000184	0.000219	0.000253	0.000284
in ethanol	4.85e-05	5.92e-05	6.49e-05	7.26e-05	9.45e-05	0.000104	0.000122	0.000152
in ethyl acetate	0.000188	0.000217	0.000242	0.0003	0.000342	0.000371	0.000433	0.00053
in isopropanol	6.43e-05	6.82e-05	7.37e-05	8.59e-05	0.000104	0.000114	0.000134	0.000152
in methanol	1.2e-05	1.5e-05	1.92e-05	2.43e-05	3.26e-05	4.34e-05	5.48e-05	6.84e-05
in water	1.04e-05	1.27e-05	1.64e-05	1.92e-05	2.51e-05	3.24e-05	4.27e-05	5.32e-05
